Measurements taken from patent US7776833B2, “Use of cyclic bioisosters of purine system derivatives for treating diseases produced by disorders of niterergic and dopaminergic systems” (priority 2003, dated 2010).

Key:
Type in all cases: in vivo, Wistar rats
[1] = tested on: apomorphine-dependent erection; test: Apomorphine-dependent erection in low-potency rats; settings: compound 5 x 10 mg/kg intraperitoneally every 48 hours + apomorphine 0.1 mg/kg subcutaneously; 20 minutes monitoring; one value for the two compounds of the line
Excerpt: One of the mechanisms regulating the sexual function of mammals is associated with functioning of the dopaminergic system of the brain. It is well known that a non-selective D1/D2 agonist apomorphine in low doses causes penile erection in rodents (Giuliano F., Allard J. Dopamine and male sexual function. Eur. Urol., 2001, 40 (6), 601-608; Giuliano F., Allard J., Rampin O. et. al. Pro-erectile effect of systemic apomorphine: existence of a spinal site action. J. Urol., 2002, 167 (1), 402-406; Brien S. E., Smallegange C., Gofton W. T., et. al. Development of a rat model of sexual performance anxiety: effect of behavioral and pharmacological hyperadrenergic stimulation on apomorphine-induced erections. Int. J. Impot. Res., 2002, 14 (2), 107-115.). In this connection, we have studied the effects of the compounds according to the invention on apomorphine-dependent erection in rats.
Nine groups of adult male Wistar rats weighing 350-450 g maintained at the normal (not inverted) light cycle were used in the experiments. To study the effect of the compounds on the sexual function, low-potency animals with a single erection were selected. Control group No. 1 (n=7) was composed of animals not injected with the compounds according to the invention. The animals of groups Nos. 2-9 (n=7) were injected with one of the compounds according to the invention selected from the group of compounds 2, 8, 9, 15, 19, 25, 31, 36, intraperitoneally in a course of 5 injections at a dose of 10 mg/kg with an interval between the injections 48 hours. Apomorphine was dissolved in 0.1% aqueous solution of ascorbic acid and then was injected to all animal subcutaneously at a dose of 0.1 mg/kg during 24-28 hours after the last injection of the compounds according to the invention. The monitoring of sexual activity was made individually for each animal immediately after the administration of apomorphine; the monitoring time was 20 minutes. The following indices were registered: the time of beginning of the first erection, time intervals between the erections, the number of erections for the entire period of observation.
The statistical analysis of the results was made using T-test and ξ-square test. The results are given in Table 3 as means±standard error of means.

[2] = tested on: physical dependence from morphine (morphine abstinence); test: Morphine abstinence syndrome, signs scored in the open field test; settings: Morphine − (morphine + compound); compound 3 x 20 mg/kg intramuscularly; one value for the three compounds
[3] = tested on: nitrites and nitrates (NOx-); test: Measurement of nitrates/nitrites (NOx-) in brain regions after the morphine abstinence experiment; settings: 3 x 20 mg/kg intramuscularly
How it was run: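 Rat brain regions homogenized in 20 mM HEPES pH 7.5 at 4 °C; deproteinized supernatants treated with nitrate reductase, 25 μM NADPH, 25 μM FAD (37 °C, 30 min), then DAN in acid; naphthotriazole fluorescence (ex 365/em 405 nm) against sodium nitrate standard, expressed as nmol/mg protein (Bradford).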

[4] = tested on: nitric oxide synthase (NOS); test: Nitric oxide synthase activity in brain regions, radiometric [3H]L-citrulline method; settings: 3 x 20 mg/kg intramuscularly
How it was run: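 Rat cortex, hippocampus, mesencephalon, striatum, brainstem, hypothalamus and cerebellum were homogenized in 20 mM HEPES pH 7.5, and the 11000 g supernatant was incubated 15-60 min at 37 °C with [3H]L-arginine, 0.2 mM CaCl2, FAD, FMN, NADPH and BH4. [3H]L-citrulline was counted after Dowex removal of arginine. Ca2+-dependent/independent activity was split using EDTA ± L-NAME, per mg Bradford protein.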

[5] = Groups Nos. 3-14, compound without morphine, one value for all 12 compounds
[6] = Morphine + compound, one value for the three compounds

Nc1ccnc2c(=O)n([C@@H]3O[C@H](CO)[C@@H](O)[C@H]3O)[nH]c(=O)c12.[Na] [Compound 2, sodium salt of 4-amino-7-(β-D-ribofuranosile)pyrido[2,3-d]-6H-pyridazine-5,8-dione]
Latent period of first erection [1]: 5.21 ± 0.30 min | Number of erection for the entire period of observation [1]: 3.13 ± 0.35 | Time between 1st and 2nd erections [1]: 3.94 ± 0.60 min | Time between 3rd and 2nd erections [1]: 5.52 ± 1.14 min

O=c1[nH][nH]c(=O)c2ncccc12.[K] [Compound 8, potassium salt of pyrido [2,3-d]-6H-pyridazine-5,8-dione]
Latent period of first erection [1]: 5.21 ± 0.30 min | Number of erection for the entire period of observation [1]: 3.13 ± 0.35 | Time between 1st and 2nd erections [1]: 3.94 ± 0.60 min | Time between 3rd and 2nd erections [1]: 5.52 ± 1.14 min

O=c1[nH]n([C@@H]2O[C@H](CO)[C@@H](O)[C@H]2O)c(=O)c2ccccc12.[Na] [Compound 9, sodium salt of 2-(β-D-ribofuranosile)benzo[d]-3H-pyridazine-1,4-dione]
Latent period of first erection [1]: 5.09 ± 0.27 min | Number of erection for the entire period of observation [1]: 3.24 ± 0.39 | Time between 1st and 2nd erections [1]: 3.87 ± 0.59 min | Time between 3rd and 2nd erections [1]: 5.19 ± 0.78 min

Nc1cccc2c(=O)[nH][nH]c(=O)c12.[Na] [Compound 15, sodium salt of 5-amino-benzo[d]-3H-pyridazine-1,4-dione]
Latent period of first erection [1]: 5.09 ± 0.27 min | Number of erection for the entire period of observation [1]: 3.24 ± 0.39 | Time between 1st and 2nd erections [1]: 3.87 ± 0.59 min | Time between 3rd and 2nd erections [1]: 5.19 ± 0.78 min

O=c1[nH]n([C@@H]2O[C@H](CO)[C@@H](O)[C@H]2O)c(=O)c2nccnc12.[Na] [Compound 19, sodium salt of 7-(β-D-ribofuranosile)pyrazino[2,3-d]-6H-pyridazine-5,8-dione]
Latent period of first erection [1]: 5.24 ± 0.19 min | Number of erection for the entire period of observation [1]: 3.29 ± 0.27 | Time between 1st and 2nd erections [1]: 3.75 ± 0.64 min | Time between 3rd and 2nd erections [1]: 5.12 ± 0.87 min

O=c1[nH][nH]c(=O)c2nccnc12.[Li] [Compound 25, lithium salt of pyrazino[2,3-d]-6H-pyridazine-5,8-dione]
Latent period of first erection [1]: 5.24 ± 0.19 min | Number of erection for the entire period of observation [1]: 3.29 ± 0.27 | Time between 1st and 2nd erections [1]: 3.75 ± 0.64 min | Time between 3rd and 2nd erections [1]: 5.12 ± 0.87 min

Nc1ncnc2c(=O)n([C@@H]3O[C@H](CO)[C@@H](O)[C@H]3O)[nH]c(=O)c12.[Na] [Compound 31, sodium salt of 4-amino-7-(β-D-ribofuranosile)pyrimido[4,5-d]-6H-pyridazine-5,8-dione]
Latent period of first erection [1]: 5.12 ± 0.24 min | Number of erection for the entire period of observation [1]: 3.32 ± 0.31 | Time between 1st and 2nd erections [1]: 3.34 ± 0.69 min | Time between 3rd and 2nd erections [1]: 5.02 ± 1.01 min

Nc1ncc2c(=O)[nH][nH]c(=O)c2n1.[Na] [Compound 36, sodium salt of 2-amino-pyrimido[4,5-d]-6H-pyridazine-5,8-dione]
Latent period of first erection [1]: 5.12 ± 0.24 min | Number of erection for the entire period of observation [1]: 3.32 ± 0.31 | Time between 1st and 2nd erections [1]: 3.34 ± 0.69 min | Time between 3rd and 2nd erections [1]: 5.02 ± 1.01 min

O=c1[nH][nH]c(=O)c2c(Br)ncnc12.[K] [Compound 37, potassium salt of 4-bromine-pyrimido[4,5-d]-6H-pyridazine-5,8-dione]
Authentic differences (ξ-square criterion) in appearance of signs of abstinence: <<Wet dog>> shakes [2]: 1.0000 | Authentic differences (ξ-square criterion) in appearance of signs of abstinence: Aggression [2]: 0.8456 | Authentic differences (ξ-square criterion) in appearance of signs of abstinence: Convulsions [2]: 0.5578 | Authentic differences (ξ-square criterion) in appearance of signs of abstinence: Diarrhea [2]: 0.0001 | Authentic differences (ξ-square criterion) in appearance of signs of abstinence: Dyspnea [2]: 0.0685 | Authentic differences (ξ-square criterion) in appearance of signs of abstinence: Forelimb jogging [2]: 0.9321 | Authentic differences (ξ-square criterion) in appearance of signs of abstinence: Grit with teeth [2]: 0.7003 | Authentic differences (ξ-square criterion) in appearance of signs of abstinence: Mastication [2]: 0.1888 | Authentic differences (ξ-square criterion) in appearance of signs of abstinence: Piloerection [2]: 0.2345 | Authentic differences (ξ-square criterion) in appearance of signs of abstinence: Ptosis [2]: 0.0232 | Authentic differences (ξ-square criterion) in appearance of signs of abstinence: Rhinorrhea [2]: 0.2935 | Authentic differences (ξ-square criterion) in appearance of signs of abstinence: Squeak when touched [2]: 0.2035 | Nitrites, brainstem [3, 5]: 6.31 ± 0.58 nmol/mg of protein | Nitrites, cerebellum [3, 5]: 6.66 ± 0.63 nmol/mg of protein | Nitrites, cerebral cortex [3, 5]: 4.31 ± 0.37 nmol/mg of protein | Nitrites, hippocampus [3, 5]: 6.47 ± 0.72 nmol/mg of protein | Nitrites, hypothalamus [3, 5]: 6.77 ± 0.83 nmol/mg of protein | Nitrites, midbrain [3, 5]: 6.65 ± 0.70 nmol/mg of protein | Nitrites, striatum [3, 5]: 6.11 ± 0.29 nmol/mg of protein | Nitrites, brainstem [3, 6]: 6.87 ± 0.81 nmol/mg of protein | Nitrites, cerebellum [3, 6]: 5.93 ± 0.54 nmol/mg of protein | Nitrites, cerebral cortex [3, 6]: 4.84 ± 0.31 nmol/mg of protein | Nitrites, hippocampus [3, 6]: 5.31 ± 0.33 nmol/mg of protein | Nitrites, hypothalamus [3, 6]: 6.77 ± 0.46 nmol/mg of protein | Nitrites, midbrain [3, 6]: 5.95 ± 0.52 nmol/mg of protein | Nitrites, striatum [3, 6]: 3.57 ± 0.42 nmol/mg of protein | Activity of NOS, hippocampus [4, 5]: 3.09 ± 0.16 nmol/min/mg of protein | Activity of NOS, hypothalamus [4, 5]: 5.45 ± 0.24 nmol/min/mg of protein | Activity of NOS, midbrain [4, 5]: 2.60 ± 0.29 nmol/min/mg of protein | Activity of NOS, striatum [4, 5]: 1.26 ± 0.08 nmol/min/mg of protein | Activity of NOS, hippocampus [4, 6]: 2.65 ± 0.15 nmol/min/mg of protein | Activity of NOS, hypothalamus [4, 6]: 5.56 ± 0.34 nmol/min/mg of protein | Activity of NOS, midbrain [4, 6]: 1.89 ± 0.27 nmol/min/mg of protein | Activity of NOS, striatum [4, 6]: 1.34 ± 0.09 nmol/min/mg of protein
